Data taken from patent US9695151B2, “3,4-dihydro-2H-isoquinoline-1-one and 2,3-dihydro-isoindol-1-one compounds” (Hoffmann-La Roche Inc., priority 2013, dated 2017).
pEC50: −log10 of the molar value.

What was measured:
[1] = target: CYP11B2 (Homo sapiens (Human), UniProt P19099); test: G-402 cellular enzyme assay, human CYP11B2 (aldosterone release); type: cell-based; conditions: G-402 cells, 1 μM Deoxycorticosterone
Source text: (§1) Herein we identified the use of the G-402 cell line as a host cell to ectopically express (transiently or stably) enzymes of the CYP11 family. Specifically we developed stable G-402 cells expressing ectopically human CYP11B1, human CYP11B2, human CYP11A1, cynmolgus CYP11B1 or cynomolgus CYP11B2 enzyme activity. Importantly the identified cell line G-402 expresses co-factors (adrenodoxin and adrenodoxin reductase) important for the activity of the CYP11 family and no relevant enzyme activity of the CYP11 family (in comparison to H295R cells) was detected in these cells. Therefore the G-402 cell line is uniquely suited as a host cell for the ectopic expression of enzymes from the CYP11 family.
(§2) G-402 cells can be obtained from ATCC (CRL-1440) and were originally derived from a renal leiomyoblastoma.
(§3) The expression plasmids contains the ORF for either human/cyno CYP11B1 or CYP11B2 under the control of a suitable promoter (CMV-promoter) and a suitable resistance marker (neomycin). Using standard techniques the expression plasmid is transfected into G-402 cells and these cells are then selected for expressing the given resistance markers. Individual cell-clones are then selected and assessed for displaying the desired enzymatic activity using 11-Deoxycorticosterone (Cyp11B2) or 11-Deoxycortisol (Cyp11B1) as a substrate.
(§4) G-402 cells expressing CYP11 constructs were established as described above and maintained in McCoy's 5a Medium Modified, ATCC Catalog No. 30-2007 containing 10% FCS and 400 μg/ml G418 (Geneticin) at 37° C. under an atmosphere of 5% CO2/95% air. Cellular enzyme assays were performed in DMEM/F12 medium containing 2.5% charcoal treated FCS and appropriate concentration of substrate (0.3-10 uM 11-Deoxycorticosterone, 11-Deoxycortisol or Corticosterone). For assaying enzymatic activity, cells were plated onto 96 well plates and incubated for 16 h. An aliquot of the supernatant is then transferred and analyzed for the concentration of the expected product (Aldosterone for CYP11B2; Cortisol for CYP11B1). The concentrations of these steroids can be determined using HTRF assays from CisBio analyzing either Aldosterone or Cortisol.
(§5) Inhibition of the release of produced steroids can be used as a measure of the respective enzyme inhibition by test compounds added during the cellular enzyme assay. The dose dependent inhibition of enzymatic activity by a compound is calculated by means of plotting added inhibitor concentrations (x-axes) vs. measured steroid/product level (y-axes). The inhibition is then calculated by fitting the following 4-parameter sigmoidal function (Morgan-Mercer-Flodin (MMF) model) to the raw data points using the least squares method:
(§6) [formula] wherein, A is the maximum y value, B is the EC50 factor determined using XLFit, C is the minimum y value and D is the slope value.
(§7) EC50 values for compounds claimed herein were tested with the G402-based assay system described. Cyp11B2 enzyme activity was tested in presence of 1 μM Deoxycorticosterone and variable amounts of inhibitors; Cyp11B1 enzyme activity was tested in presence of 1 μM Deoxycortisol and variable amounts of inhibitors.

[2] = target: human CYP11B1 (Homo sapiens (Human), UniProt P15538); test: G-402 cellular enzyme assay, human CYP11B1 (cortisol release); type: cell-based; conditions: G-402 cells, 1 μM Deoxycortisol
Source text: as §1, §2, §3, §4, §5, §6, §7

CYP11B2, sequence (P19099 25-503): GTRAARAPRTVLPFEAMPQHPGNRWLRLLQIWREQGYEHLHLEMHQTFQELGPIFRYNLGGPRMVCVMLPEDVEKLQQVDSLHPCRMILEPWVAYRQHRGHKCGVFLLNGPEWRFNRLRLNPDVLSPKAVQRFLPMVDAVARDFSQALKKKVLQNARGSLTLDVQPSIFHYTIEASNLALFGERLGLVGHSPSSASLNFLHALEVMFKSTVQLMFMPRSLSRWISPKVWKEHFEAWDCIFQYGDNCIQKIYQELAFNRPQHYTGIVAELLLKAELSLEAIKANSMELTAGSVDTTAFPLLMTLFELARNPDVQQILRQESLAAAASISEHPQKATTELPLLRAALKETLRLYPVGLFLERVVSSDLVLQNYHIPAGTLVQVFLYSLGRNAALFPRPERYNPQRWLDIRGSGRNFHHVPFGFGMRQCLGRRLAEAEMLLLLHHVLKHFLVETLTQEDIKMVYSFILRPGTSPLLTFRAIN
human CYP11B1, sequence (P15538 25-503): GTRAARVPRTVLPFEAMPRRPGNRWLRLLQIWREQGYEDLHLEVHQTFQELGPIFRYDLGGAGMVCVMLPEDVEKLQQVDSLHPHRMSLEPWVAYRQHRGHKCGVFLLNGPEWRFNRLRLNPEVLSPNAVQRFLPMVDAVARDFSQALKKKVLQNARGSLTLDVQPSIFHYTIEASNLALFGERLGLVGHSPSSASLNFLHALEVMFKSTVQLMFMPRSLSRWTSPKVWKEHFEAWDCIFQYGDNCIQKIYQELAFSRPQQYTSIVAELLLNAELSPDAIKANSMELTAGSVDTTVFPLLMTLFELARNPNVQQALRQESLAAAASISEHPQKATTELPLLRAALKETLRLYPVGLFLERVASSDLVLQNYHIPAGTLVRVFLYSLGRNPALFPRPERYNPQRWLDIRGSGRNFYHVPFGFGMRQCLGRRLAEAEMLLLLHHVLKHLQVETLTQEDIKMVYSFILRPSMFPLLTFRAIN

Compound | pEC50 [1] | pEC50 [2]
CCCS(=O)(=O)N1CC(N(C)c2cncc(N3C(=O)c4ccc(Cl)cc4C3(C)C)c2)C1 [Example 14, 5-Chloro-3,3-dimethyl-2-[5-[methyl-(1-propylsulfonylazetidin-3-yl)amino]pyridin-3-yl]isoindol-1-one] | 9.22 | 7.60
CC(C)S(=O)(=O)N1CC(Nc2cncc(N3CCc4cc(Cl)ccc4C3=O)c2)C1 [Example 31, 6-Chloro-2-[5-[(1-propan-2-ylsulfonylazetidin-3-yl)amino]pyridin-3-yl]-3,4-dihydroisoquinolin-1-one] | 7.47 | 5.42
CC1(C)c2cc(Cl)ccc2C(=O)N1c1cncc(NC2CCCN(S(C)(=O)=O)C2)c1 (single isomer, unassigned) [Example 23, 5-Chloro-3,3-dimethyl-2-[5-[[(3S or 3R)-1-methylsulfonylpiperidin-3-yl]amino]pyridin-3-yl]isoindol-1-one] | 5.92 | 4.74
CCC(=O)N1CC(Nc2cncc(N3C(=O)c4ccc(Cl)cc4[C@H]3C)c2)C1 (single isomer, unassigned) [Example 39, (3R or 3S)-5-Chloro-3-methyl-2-[5-[(1-propanoylazetidin-3-yl)amino]-3-pyridyl]isoindolin-1-one] | 7.04 | 4.97
CCS(=O)(=O)N1CC(Nc2cncc(N3C(=O)c4ccc(Cl)cc4C3(C)C)c2)C1 [Example 7, 5-Chloro-2-[5-[(1-ethylsulfonylazetidin-3-yl)amino]pyridin-3-yl]-3,3-dimethylisoindol-1-one] | 8.10 | 5.78
CC(C)S(=O)(=O)N1CCCC(Nc2cncc(N3C(=O)c4ccc(Cl)cc4C3(C)C)c2)C1 (single isomer, unassigned) [Example 26, 5-Chloro-3,3-dimethyl-2-[5-[[(3R or 3S)-1-propan-2-ylsulfonylpiperidin-3-yl]amino]pyridin-3-yl]isoindol-1-one] | 5.63 | < 4.52
CCS(=O)(=O)N1CC(Nc2cncc(N3C(=O)c4ccc(Cl)cc4[C@H]3C)c2)C1 (single isomer, unassigned) [Example 41, (3R or 3S)-5-Chloro-2-[5-[(1-ethylsulfonylazetidin-3-yl)amino]-3-pyridyl]-3-methyl-isoindolin-1-one] | 7.41 | 4.96
CCCS(=O)(=O)N1CCC(N(C)c2cncc(N3C(=O)c4ccc(Cl)cc4C3(C)C)c2)C1 (single isomer, unassigned) [Example 17, 5-Chloro-3,3-dimethyl-2-[5-[methyl-[(3S or 3R)-1-propylsulfonylpyrrolidin-3-yl]amino]pyridin-3-yl]isoindol-1-one] | 9.00 | 6.89
CCS(=O)(=O)N1CCCC(Nc2cncc(N3C(=O)c4ccc(Cl)cc4C3(C)C)c2)C1 (single isomer, unassigned) [Example 25, 5-Chloro-2-[5-[[(3S or 3R)-1-ethylsulfonylpiperidin-3-yl]amino]pyridin-3-yl]-3,3-dimethylisoindol-1-one] | 6.35 | 4.86
CC(=O)N1CC(N(C)c2cncc(N3C(=O)c4ccc(Cl)cc4C3(C)C)c2)C1 [Example 2, 2-[5-[(1-Acetylazetidin-3-yl)-methylamino]pyridin-3-yl]-5-chloro-3,3-dimethylisoindol-1-one] | 7.92 | 6.26
CCC(=O)N1CC(N(C)c2cncc(N3C(=O)c4ccc(Cl)cc4C3(C)C)c2)C1 [Example 12, 5-Chloro-3,3-dimethyl-2-[5-[methyl-(1-propanoylazetidin-3-yl)amino]pyridin-3-yl]isoindol-1-one] | 8.70 | 7.07
CC(C)S(=O)(=O)N1CCCC(Nc2cncc(N3C(=O)c4ccc(Cl)cc4C3(C)C)c2)C1 (single isomer, unassigned) [Example 27, 5-Chloro-3,3-dimethyl-2-[5-[[(3S or 3R)-1-propan-2-ylsulfonylpiperidin-3-yl]amino]pyridin-3-yl]isoindol-1-one] | 5.82 | < 4.52
CCC(=O)N1CC(Nc2cncc(N3C(=O)c4ccc(Cl)cc4C3(C)C)c2)C1 [Example 9, 5-Chloro-3,3-dimethyl-2-[5-[(1-propanoylazetidin-3-yl)amino]pyridin-3-yl]isoindol-1-one] | 8.00 | 5.59
CCC(=O)N1CC(Nc2cncc(N3C(=O)c4ccc(C#N)cc4C3(C)C)c2)C1 [Example 45, 3,3-Dimethyl-1-oxo-2-[5-[(1-propanoylazetidin-3-yl)amino]-3-pyridyl]isoindoline-5-carbonitrile] | 6.91 | 5.23
CCS(=O)(=O)N1CCCC(Nc2cncc(N3C(=O)c4ccc(Cl)cc4C3(C)C)c2)C1 (single isomer, unassigned) [Example 24, 5-Chloro-2-[5-[[(3R or 3S)-1-ethylsulfonylpiperidin-3-yl]amino]pyridin-3-yl]-3,3-dimethylisoindol-1-one] | 6.45 | 4.42
CC1(C)c2cc(Cl)ccc2C(=O)N1c1cncc(NC2CCCN(S(C)(=O)=O)C2)c1 (single isomer, unassigned) [Example 22, 5-Chloro-3,3-dimethyl-2-[5-[[(3R or 3S)-1-methylsulfonylpiperidin-3-yl]amino]pyridin-3-yl]isoindol-1-one] | 6.83 | 4.56
CCC(=O)N1CCC(Nc2cncc(N3C(=O)c4ccc(C#N)cc4C3(C)C)c2)CC1 [Example 44, 3,3-Dimethyl-1-oxo-2-[5-[(1-propanoyl-4-piperidyl)amino]-3-pyridyl]isoindoline-5-carbonitrile] | 7.66 | 5.16
CCC(=O)N1CC(Nc2cncc(N3C(=O)c4ccc(Cl)cc4[C@@H]3C)c2)C1 (single isomer, unassigned) [Example 40, (3S or 3R)-5-Chloro-3-methyl-2-[5-[(1-propanoylazetidin-3-yl)amino]-3-pyridyl]isoindolin-1-one] | 6.81 | 5.38
CCS(=O)(=O)N1CCC(Nc2cncc(N3C(=O)c4ccc(C#N)cc4C3(C)C)c2)CC1 [Example 43, 2-[5-[(1-Ethylsulfonyl-4-piperidyl)amino]-3-pyridyl]-3,3-dimethyl-1-oxo-isoindoline-5-carbonitrile] | 7.89 | 5.34
CCC(=O)N1CC(Nc2cncc(N3C(=O)c4ccc(Cl)cc4C3C)c2)C1 (centres unmarked) [Example 33, 5-Chloro-3-methyl-2-[5-[(1-propanoylazetidin-3-yl)amino]pyridin-3-yl]-3H-isoindol-1-one] | 7.19 | < 4.52
CCC(=O)N1CC(Nc2cncc(N3CCc4cc(Cl)ccc4C3=O)c2)C1 [Example 29, 6-Chloro-2-[5-[(1-propanoylazetidin-3-yl)amino]pyridin-3-yl]-3,4-dihydroisoquinolin-1-one] | 6.75 | 4.62
CC(=O)N1CC(Nc2cncc(N3C(=O)c4ccc(Cl)cc4C3(C)C)c2)C1 [Example 1, 2-[5-[(1-Acetylazetidin-3-yl)amino]pyridin-3-yl]-5-chloro-3,3-dimethylisoindol-1-one] | 7.42 | 5.23
CCS(=O)(=O)N1CC(Nc2cncc(N3C(=O)c4ccc(Cl)cc4[C@@H]3C)c2)C1 (single isomer, unassigned) [Example 42, (3S or 3R)-5-Chloro-2-[5-[(1-ethylsulfonylazetidin-3-yl)amino]-3-pyridyl]-3-methyl-isoindolin-1-one] | 7.92 | 5.97
CC(C)S(=O)(=O)N1CCC(N(C)c2cncc(N3C(=O)c4ccc(Cl)cc4C3(C)C)c2)C1 (single isomer, unassigned) [Example 15, 5-Chloro-3,3-dimethyl-2-[5-[methyl-[(3S or 3R)-1-propan-2-ylsulfonylpyrrolidin-3-yl]amino]pyridin-3-yl]isoindol-1-one] | 9.00 | 6.14
CCS(=O)(=O)N1CCC(N(C)c2cncc(N3C(=O)c4ccc(Cl)cc4C3(C)C)c2)CC1 [Example 20, 5-Chloro-2-[5-[(1-ethylsulfonylpiperidin-4-yl)-methylamino]pyridin-3-yl]-3,3-dimethylisoindol-1-one] | 9.10 | 9.40
